The results in this text go back to ChEMBL document CHEMBL1128380, “Antimalarial activity of novel ring-contracted artemisinin derivatives” (1995).

Type in all cases: functional
Assay [1] relates to Mus musculus. Briefly: Antimalarial activity was determined by blood schizonticidal activity in mice (Mus musculus) infected with Plasmodium berghei K173 at 5 (mg/kg x5) subcutaneous dosage; Cured/treated = 4/6 on day 7.
The test system of assay [2] is Mus musculus. The assay can be described thus: Antimalarial activity was determined by blood schizonticidal activity in mice (Mus musculus) infected with Plasmodium berghei K173 at 10 (mg/kgx5) subcutaneous dosage; Cured/treated = 0/6 on day 7.
For assay [3], the system named is Mus musculus. The assay can be described thus: Antimalarial activity was determined by Blood schizonticidal activity in mice (Mus musculus) infected with Plasmodium berghei K173 at 25 (mg/kgx5) subcutaneous dosage; Cured/treated = 4/4.
In assay [4] the test system is Mus musculus. The assay can be described thus: Antimalarial activity was determined by Blood schizonticidal activity in mice (Mus musculus) infected with Plasmodium berghei K173 at 2.5 (mg/kgx5) subcutaneous dosage; Cured/treated = 0/6 on day 7.
The test system of assay [5] is Mus musculus. Briefly: Antimalarial activity was determined by Blood schizonticidal activity in mice (Mus musculus) infected with Plasmodium berghei NS at 5 (mg/kg x5) subcutaneous dosage; Cured/treated = 10/10.
Assay [6] relates to Mus musculus. Briefly: Antimalarial activity was determined by blood schizonticidal activity in mice (Mus musculus) infected with Plasmodium berghei K173 at 25 (mg/kgx5) peroral dosage; Cured/treated = 0/6.
For assay [7], the system named is Mus musculus. Briefly: Antimalarial activity was determined by Blood schizonticidal activity in mice (Mus musculus) infected with Plasmodium berghei K173 at 25 (mg/kgx5) peroral dosage; Cured/treated = 10/12 on day 7.
Assay [8] deals with Mus musculus. Briefly: Antimalarial activity was determined by Blood schizonticidal activity in mice (Mus musculus) infected with Plasmodium berghei NS at 25 (mg/kgx5) peroral dosage; Cured/treated = 0/6.
Assay [9] has as its system Mus musculus. Briefly: Antimalarial activity was determined by Blood schizonticidal activity in mice (Mus musculus) infected with Plasmodium berghei K173 at 1.25 (mg/kgx5) subcutaneous dosage; Cured/treated = 30/30 on day 7.
Assay [10] concerns Mus musculus. Briefly: Antimalarial activity was determined by blood schizonticidal activity in mice (Mus musculus) infected with Plasmodium berghei K173 at 10 (mg/kgx5) peroral dosage; Cured/treated = 0/6 on day 7.
In assay [11] the test system is Mus musculus. Briefly: Antimalarial activity was determined by Blood schizonticidal activity in mice (Mus musculus) infected with Plasmodium berghei NS at 7.5 (mg/kg x5) peroral dosage; Cured/treated = 8/8.
Assay [12] has as its system Mus musculus. The assay can be described thus: Antimalarial activity was determined by Blood schizonticidal activity in mice (Mus musculus) infected with Plasmodium berghei NS at 2.5 (mg/kgx5) subcutaneous dosage; Cured/treated = 11/14.
The test system of assay [13] is Mus musculus. Briefly: Antimalarial activity was determined by Blood schizonticidal activity in mice (Mus musculus) infected with Plasmodium berghei K173 at 20 (mg/kg x5) peroral dosage; Cured/treated = 4/12 on day 7.
Assay [14] concerns Mus musculus. The assay can be described thus: Antimalarial activity was determined by Blood schizonticidal activity in mice (Mus musculus) infected with Plasmodium berghei K173 at 0.625 (mg/kg x5) subcutaneous dosage; Cured/treated = 14/19 on day 7.
Assay [15] deals with Mus musculus. Briefly: Antimalarial activity was determined by blood schizonticidal activity in mice (Mus musculus) infected with Plasmodium berghei NS at 5 (mg/kg x5) subcutaneous dosage; Cured/treated = 19/20 on day 7.
Assay [16] deals with Mus musculus. Briefly: Antimalarial activity was determined by Blood schizonticidal activity in mice (Mus musculus) infected with Plasmodium berghei K173 at 12.5 (mg/kg x5) peroral dosage; Cured/treated = 3/6 on day 7.
For assay [17], the system named is Mus musculus. Briefly: Antimalarial activity was determined by blood schizonticidal activity in mice (Mus musculus) infected with Plasmodium berghei NS at 12.5 (mg/kg x5) peroral dosage; Cured/treated = 2/6.
The subject of assay [18] is Mus musculus. Briefly: Antimalarial activity was determined by Blood schizonticidal activity in mice (Mus musculus) infected with Plasmodium berghei NS at 2.5 (mg/kgx5) subcutaneous dosage; Cured/treated = 6/6.
Assay [19] relates to Mus musculus. The assay can be described thus: Antimalarial activity was determined by Blood schizonticidal activity in mice (Mus musculus) infected with Plasmodium berghei K173 at 0.625 (mg/kg x5) subcutaneous dosage; Cured/treated = 6/6 on day 7.
For assay [20], the system named is Mus musculus. Briefly: Antimalarial activity was determined by blood schizonticidal activity in mice (Mus musculus) infected with Plasmodium berghei K173 at 25 (mg/kgx5) peroral dosage; Cured/treated = 6/6 on day 7.
Assay [21] has as its system Mus musculus. The assay can be described thus: Antimalarial activity was determined by Blood schizonticidal activity in mice (Mus musculus) infected with Plasmodium berghei NS at 25 (mg/kgx5) peroral dosage; Cured/treated = 6/6.
The subject of assay [22] is Mus musculus. Briefly: Antimalarial activity was determined by blood schizonticidal activity in mice (Mus musculus) infected with Plasmodium berghei K173 at 1.25 (mg/kgx5) subcutaneous dosage; Cured/treated = 23/35 on day 7.
In assay [23] the test system is Mus musculus. The assay can be described thus: Antimalarial activity was determined by Blood schizonticidal activity in mice (Mus musculus) infected with Plasmodium berghei K173 at 2.5 (mg/kgx5) subcutaneous dosage; Cured/treated = 36/36.
In assay [24] the test system is Mus musculus. Briefly: Antimalarial activity was determined by Blood schizonticidal activity in mice (Mus musculus) infected with Plasmodium berghei K173 at 20 (mg/kg x5) peroral dosage; Cured/treated = 34/34.
Assay [25] concerns Mus musculus. The assay can be described thus: Antimalarial activity was determined by blood schizonticidal activity in mice (Mus musculus) infected with Plasmodium berghei NS at 25 (mg/kgx5) peroral dosage; Cured/treated = 7/12 on day 7.
In assay [26] the test system is Mus musculus. Briefly: Antimalarial activity was determined by blood schizonticidal activity in mice (Mus musculus) infected with Plasmodium berghei NS at 5 (mg/kg x5) subcutaneous dosage; Cured/treated = 16/18 on day 7.

SMILES strings stand for the structures.

Consider `C[C@@H]1CC[C@@H]2[C@]34OO[C@@](C)(CCC13)O[C@H]4O[C@]2(C)C(=O)NCc1ccc(C(F)(F)F)cc1` (stereo partly specified), for which the Cured/treated with Mus musculus [1] came out at 4.

On to `C[C@@H]1CCC2[C@]34OOC(C)(CCC13)O[C@H]4O[C@]2(C)C=O` (single isomer, unassigned), for which the results for the Cured/treated in the assay on Mus musculus [2] and in the assay with Mus musculus [3] were 0 and 4, respectively.

For `C=CCOC[C@@]1(C)O[C@@H]2OC3(C)CCC4[C@H](C)CC[C@@H]1[C@]42OO3` (single isomer, unassigned), the Cured/treated was found to be 0 with Mus musculus [4], 10 in the assay on Mus musculus [5] and 0 with Mus musculus [6].

`C[C@H]1[C@@H](OC[C@]2(C)OC3OC4(C)CCC5[C@@H](C)CCC2[C@]35OO4)O[C@@H]2OC3(C)CCC4[C@H](C)CC[C@@H]1[C@]42OO3` (single isomer, unassigned): the Cured/treated is reported as 10 in the assay with Mus musculus [7]; 0 in the assay with Mus musculus [8]; 30 with Mus musculus [9]; 0 in the assay on Mus musculus [10]; 8 with Mus musculus [11]; 11 with Mus musculus [12]. In addition, the Cured/treated was found to be 4 in the assay on Mus musculus [13], 14 with Mus musculus [14] and 19 with Mus musculus [15].

Turning to `C[C@H]1[C@H](OC[C@]2(C)OC3OC4(C)CCC5[C@@H](C)CCC2[C@]35OO4)O[C@@H]2OC3(C)CCC4[C@H](C)CC[C@@H]1[C@]42OO3` (single isomer, unassigned), the Cured/treated in the assay with Mus musculus [16] is recorded as 3; in the assay on Mus musculus [17], 2; in the assay with Mus musculus [18], 6; in the assay with Mus musculus [19], 6; in the assay on Mus musculus [20], 6; in the assay with Mus musculus [21], 6.

Consider `CCO[C@H]1O[C@@H]2O[C@@]3(C)CC[C@H]4[C@H](C)CC[C@@H]([C@H]1C)[C@@]24OO3` [ARTEMOTIL], for which the Cured/treated came to 23 in the assay with Mus musculus [22]; 36 in the assay on Mus musculus [23]; 34 in the assay with Mus musculus [24]; 7 in the assay on Mus musculus [25]; 16 in the assay on Mus musculus [26].
